In ChEMBL document CHEMBL1275601, “Striking species difference in the contribution of concentrative nucleoside transporter 2 to nucleoside uptake between mouse and rat hepatocytes” (Antimicrob Agents Chemother, 2010):
Activity calls are given as the source filed them. The calls are words filed in the database; no cut-off is given here.

How the values were obtained:
Type in all cases: cell-based
[1] = target: T1, Equilibrative nucleoside transporter 1 (Mus musculus) (UniProt Q9JIM1); assay: Transport through ENT1 in mouse hepatocytes by oil filtration assay in presence of sodium ions in Kreb-henseleit buffer; conditions: Hepatocyte
T1 sequence (whole entry): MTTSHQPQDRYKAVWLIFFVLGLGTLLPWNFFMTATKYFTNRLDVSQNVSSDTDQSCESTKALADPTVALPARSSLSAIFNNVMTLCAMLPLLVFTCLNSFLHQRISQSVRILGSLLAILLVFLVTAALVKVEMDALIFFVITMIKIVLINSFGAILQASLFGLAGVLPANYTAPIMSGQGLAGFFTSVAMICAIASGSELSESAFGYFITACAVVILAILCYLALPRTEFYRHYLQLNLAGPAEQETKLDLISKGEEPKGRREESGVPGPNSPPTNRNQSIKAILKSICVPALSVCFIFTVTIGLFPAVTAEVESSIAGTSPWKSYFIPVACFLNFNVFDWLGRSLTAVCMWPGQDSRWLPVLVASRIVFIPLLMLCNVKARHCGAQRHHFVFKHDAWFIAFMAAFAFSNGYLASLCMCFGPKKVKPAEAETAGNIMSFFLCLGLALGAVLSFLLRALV

[2] = test system: Hepatocyte; assay: Transport through CNT3 in mouse hepatocytes by oil filtration assay in presence of sodium ions in Kreb-henseleit buffer
[3] = test system: Hepatocyte; assay: Transport through CNT3 in rat hepatocytes by oil filtration assay in presence of sodium ions in Kreb-henseleit buffer containing 100 uM NBMPR and 1 mM inosine
[4] = target: T2, Sodium/nucleoside cotransporter 1 (Rattus norvegicus) (UniProt Q62674); assay: Transport through CNT1 in rat hepatocytes by oil filtration assay in presence of sodium ions in Kreb-henseleit buffer; conditions: Hepatocyte
T2 sequence (whole entry): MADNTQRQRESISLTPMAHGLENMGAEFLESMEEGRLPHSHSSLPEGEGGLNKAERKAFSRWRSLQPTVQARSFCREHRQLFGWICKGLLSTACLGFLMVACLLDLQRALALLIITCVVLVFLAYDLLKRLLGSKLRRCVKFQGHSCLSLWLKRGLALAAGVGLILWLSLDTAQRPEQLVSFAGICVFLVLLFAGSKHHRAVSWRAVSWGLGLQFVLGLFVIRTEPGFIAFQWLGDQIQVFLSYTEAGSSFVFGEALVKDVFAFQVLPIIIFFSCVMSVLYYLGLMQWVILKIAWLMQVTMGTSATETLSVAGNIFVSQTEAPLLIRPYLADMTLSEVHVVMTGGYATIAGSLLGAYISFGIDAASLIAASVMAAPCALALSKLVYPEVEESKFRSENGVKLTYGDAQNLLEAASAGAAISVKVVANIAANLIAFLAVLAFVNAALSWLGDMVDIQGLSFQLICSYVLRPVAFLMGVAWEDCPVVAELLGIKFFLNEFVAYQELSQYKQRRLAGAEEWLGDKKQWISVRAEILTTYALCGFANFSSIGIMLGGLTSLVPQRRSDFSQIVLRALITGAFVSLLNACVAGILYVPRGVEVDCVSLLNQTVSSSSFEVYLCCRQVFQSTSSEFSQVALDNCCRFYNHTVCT

[5] = target: T3, Equilibrative nucleoside transporter 2 (Rattus norvegicus) (UniProt O54699); assay: Transport through ENT2 in rat hepatocytes by oil filtration assay; conditions: Hepatocyte
T3 sequence (whole entry): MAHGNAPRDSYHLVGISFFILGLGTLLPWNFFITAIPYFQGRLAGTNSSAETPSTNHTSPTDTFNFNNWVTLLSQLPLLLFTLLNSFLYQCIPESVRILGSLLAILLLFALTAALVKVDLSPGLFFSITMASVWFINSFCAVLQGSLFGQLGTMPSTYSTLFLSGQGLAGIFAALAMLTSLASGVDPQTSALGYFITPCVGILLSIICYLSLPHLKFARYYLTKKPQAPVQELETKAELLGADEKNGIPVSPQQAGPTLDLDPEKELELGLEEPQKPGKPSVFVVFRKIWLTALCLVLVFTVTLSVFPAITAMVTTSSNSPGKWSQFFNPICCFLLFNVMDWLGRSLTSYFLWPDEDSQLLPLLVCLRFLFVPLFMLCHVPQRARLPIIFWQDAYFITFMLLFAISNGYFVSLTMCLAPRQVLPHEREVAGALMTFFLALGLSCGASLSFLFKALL

[6] = target: T4, Equilibrative nucleoside transporter 2 (Mus musculus) (UniProt Q61672); assay: Transport through ENT2 in mouse hepatocytes by oil filtration assay in presence of sodium ions in Kreb-henseleit buffer; conditions: Hepatocyte
T4 sequence (whole entry): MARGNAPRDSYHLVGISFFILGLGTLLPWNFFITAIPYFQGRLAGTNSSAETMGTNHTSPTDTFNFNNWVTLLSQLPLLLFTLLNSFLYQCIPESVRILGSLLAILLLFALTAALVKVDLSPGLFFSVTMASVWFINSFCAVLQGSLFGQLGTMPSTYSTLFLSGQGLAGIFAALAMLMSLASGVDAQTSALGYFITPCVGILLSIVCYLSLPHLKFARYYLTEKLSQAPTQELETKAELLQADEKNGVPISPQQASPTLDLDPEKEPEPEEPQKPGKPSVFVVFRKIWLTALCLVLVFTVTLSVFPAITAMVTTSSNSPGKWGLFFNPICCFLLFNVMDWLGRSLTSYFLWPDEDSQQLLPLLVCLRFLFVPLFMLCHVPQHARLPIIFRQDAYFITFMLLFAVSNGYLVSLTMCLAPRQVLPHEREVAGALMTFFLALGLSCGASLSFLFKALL

[7] = target: T5, Sodium/nucleoside cotransporter 2 (Rattus norvegicus) (UniProt Q62773); assay: Transport through CNT2 in rat hepatocytes by oil filtration assay; conditions: Hepatocyte
T5 sequence (whole entry): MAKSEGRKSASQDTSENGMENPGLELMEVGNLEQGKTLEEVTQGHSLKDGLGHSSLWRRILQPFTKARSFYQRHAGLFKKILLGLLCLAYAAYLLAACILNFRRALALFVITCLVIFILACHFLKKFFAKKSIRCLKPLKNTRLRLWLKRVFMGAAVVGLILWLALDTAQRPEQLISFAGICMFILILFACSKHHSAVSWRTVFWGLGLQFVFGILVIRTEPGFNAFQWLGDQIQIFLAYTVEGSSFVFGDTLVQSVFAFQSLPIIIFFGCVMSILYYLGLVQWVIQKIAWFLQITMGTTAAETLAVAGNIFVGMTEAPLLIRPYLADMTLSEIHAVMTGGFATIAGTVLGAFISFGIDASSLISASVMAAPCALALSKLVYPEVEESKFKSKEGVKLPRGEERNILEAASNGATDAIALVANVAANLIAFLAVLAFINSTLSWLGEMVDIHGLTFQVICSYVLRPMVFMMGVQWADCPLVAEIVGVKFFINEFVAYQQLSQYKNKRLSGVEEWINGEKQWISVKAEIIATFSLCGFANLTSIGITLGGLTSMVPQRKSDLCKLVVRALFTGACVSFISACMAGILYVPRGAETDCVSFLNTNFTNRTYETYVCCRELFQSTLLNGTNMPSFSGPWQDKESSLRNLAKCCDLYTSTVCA

Nc1ncnc2c1ncn2[C@@H]1O[C@H](CO)[C@@H](O)[C@H]1O
Activity [1]: inactive | Activity [2]: inactive | Activity [3]: inactive | Activity [4]: Active | Activity [5]: inactive | Activity [6]: inactive | Activity [7]: inactive

NC(=O)c1ncn([C@@H]2O[C@H](CO)[C@@H](O)[C@H]2O)n1
Activity [1]: inactive | Activity [2]: inactive | Activity [3]: inactive | Activity [4]: Active | Activity [5]: Active | Activity [6]: inactive | Activity [7]: Active
